Key:
WHHL rabbits [1] = test: Example 2: percentage area covered by lesions, aortic arch and whole aorta; format: in vivo, Male WHHL rabbits; parameters: Lesion Area, Aortic Arch, percentage against the control group / Lesion Area, Total Aorta, percentage against the control group: concentration or dose not given beside the values; conditions: oral, eight months
Procedure: (§1) Each test compound was administered for eight months to the rabbits in the form of an aqueous suspension (0.5% carboxymethylcellulose added). In the control group, a 0.5% carboxymethylcellulose solution only was administered.
The values actually measured are represented by the mean value plus or minus standard error. The numbers in parentheses represent the percentage lesion area against the control group.
*p<0.05, **p<0.01; significant difference against the control group under the [Mann-Whitney's U-Test A significant difference (p<0.05) was observed between Groups B and F, between Groups C and E and between Groups D and F at the aortic arch, and between Groups C and E over the total aorta.

WHHL rabbits [2] = test: Example 2: average thickening of intima in aorta; format: in vivo, Male WHHL rabbits; parameters: Average thickening of intima, Aortic Arch, percentage against the control group / Average thickening of intima, Total Aorta, percentage against the control group: concentration or dose not given beside the values
Procedure: as §1
The values actually measured are represented as the mean value plus or minus a standard error (μm). The numbers in parentheses represent the percentage intimal thickening against the control group. A significant difference was observed between Groups D and F at the aortic arch, and between Groups C and E and between Groups D and F over the total aorta (p<0.05) under the Mann-Whitney's U-Test.
The average thickening of the intima is calculated by the cross-sectional area of the aortic tunica intima one section from the arch and two sections from the thoracic and abdominal portions, divided by the length of the tunica media.

Male Fl b hamsters = test: Example 4: regression of preformed atherosclerosis in hamsters (Oil Red O stained area); format: in vivo
Procedure: Synergism of HMG CoA reductase inhibitors and thiazolidinedione insulin sensitizers was examined by another regression model, i.e. the regression of preformed atherosclerosis in hamsters. Male Fl b hamsters (weight about 130 g,) were given a diet containing 0.05% cholesterol for 13 weeks. They were grouped randomly (2-7 animals per group), and then the test samples were administered for 4 weeks while the hamsters were given a normolipidaemic diet. Pravastatin and fluvastatin were mixed with drinking water at the dose of 3 mg/kg and 1.5 mg/kg, respectively, while troglitazone was mixed with the diet at the dose of 30 mg/kg or 100 mg/kg.
In the case of the combination groups, the dosage was 3 mg/kg+30 mg/kg or 3 mg/kg+100 mg/kg for the pravastatin+troglitazone group, and 1.5 mg/kg+30 mg/kg for the fluvastatin+troglitazone group.
Namely, the aortic arch was stained with ORO to prepare en face specimens. The percentage area which was positive to the ORO stain over the whole area was measured to represent the degree of aortic lesion.

[3] = test system: coronary arteriosclerosis and xanthoma; conditions: literature: Biochim. Biophys. Acta 960, 294-302 (1988); Atherosclerosis 83, 69-80 (1990); cited from earlier work
WHHL rabbits [4] = test: Example 2: incidence and degree of xanthoma of the four legs; format: in vivo, Male WHHL rabbits; parameters: Frequency of massive xanthoma: unit not given here
Procedure: as §1
The incidence and the degree of xanthoma of the four legs were measured.

[5] = Example 1: plasma total cholesterol in WHHL rabbits; format: in vivo; conditions: pravastatin 50 mg/kg/day oral gavage, troglitazone in diet containing 100 mg/kg
Procedure: WHHL rabbits [2-3 months of age, the Watanabe heritable hyperlipidemic rabbit described in Biochimica et Biophysica Acta, 960, 294-302 (1988)] were randomly assigned to a control group (7 animals, group A), a group receiving pravastatin alone (5 animals, Group B), a group receiving troglitazone alone (7 animals, Group C), and a group receiving a combination of both active substances (6 animals, Group D). Pravastatin was administered orally by gavage at a dose of 50 mg/kg/day once-daily and troglitazone was given in the diet, containing 100 mg/kg of the substance for 32 weeks. The ingested amount was limited to a daily 120 g per rabbit. Blood was withdrawn from the animal immediately before starting the study and 4, 8, 12, 16, 20, 24, 28 and 32 weeks after starting the study and the total cholesterol levels (mg/dl) were determined for each blood sample. The levels are reported as a percentage (%) of the levels measured immediately before starting the study. The animals were sacrificed and necropsied at week 32 to examine (a) the percent lesion area (%) in the total, thoracic or abdominal portion of the aorta; (b) the stenosis (%) of the coronary arteries and (c) the incidence (%) of xanthoma in the digital joints.

WHHL rabbits [6] = test: Example 2: aortic cholesterol content; format: in vivo, Male WHHL rabbits
Procedure: as §1
The aortic cholesterol content was measured The tunica media and tunica intima at the aortic arch and at the thoracic and abdominal aorta were peeled away with tweezers and cut into pieces. The pieces were extracted with a 2:1 by volume mixture of chloroform and methanol.
The chloroform phase was separated and evaporated to dryness and the residue was dissolved in isopropanol. The total cholesterol and the free cholesterol were measured by a conventional enzymatic method.
Data are expressed by the mean plus or minus standard error (mg/g tissue). The values in parentheses indicate the percentage against the control. A significant difference against the control group was observed by the unpaired student t-test: […]

[7] = test system: Male New Zealand white rabbits; test: Example 3: regression of established atherosclerotic lesions in the cholesterol-fed rabbit model; format: in vivo; conditions: for Rate of lesion area, against the control group: figure in parentheses; for Rate of lesion area: thoracic aorta, two months, mean ± standard error, control 29 ± 20
Procedure: The rabbits were grouped randomly (3-9 animals per group) and the test samples were administered orally for two months, while they were fed with a normolipidaemic diet. […] The results are shown in terms of the percentage of lesion area in the thoracic aorta.

[8] = oral, eight months, control 100 (14/14), *p < 0.05, **p < 0.01 vs control

With `CC[C@H](C)C(=O)O[C@H]1C[C@H](O)C=C2C=C[C@H](C)[C@H](CC[C@@H](O)C[C@@H](O)CC(=O)O)[C@H]21` [Pravastatin, sodium 1,2,6,7,8,8a-hexahydro-6,8-tetrahydroxy-2-methyl-1-naphthaleneheptanoate] the “Lesion Area, Aortic Arch, percentage against the control group” value (WHHL rabbits [1]; number in parentheses) was 72%, the “Lesion Area, Total Aorta, percentage against the control group” value (WHHL rabbits [1]; number in parentheses) was 70% and the “Lesion Area, Total Aorta” value (WHHL rabbits [1]; pravastatin 50, pioglitazone 20, Compound A 10 mg/kg, mean ± standard error, *p<0.05, **p<0.01 vs control) was 35 ± 6%. For the same compound, the “Lesion Area, Aortic Arch” value (WHHL rabbits [1]; pravastatin 50, pioglitazone 20, Compound A 10 mg/kg, mean ± standard error, control 82 ± 5, *p<0.05, **p<0.01 vs control) was 59 ± 11%, the “suppression of intimal thickening” value (WHHL rabbits [2]; combinations compared with Groups C and D) was “slight suppression of intimal thickening” and the “Average thickening of intima, Aortic Arch, percentage against the control group” value (WHHL rabbits [2]; number in parentheses) was 82%. The “Average thickening of intima, Total Aorta, percentage against the control group” value (WHHL rabbits [2]; number in parentheses) was 82%, the “Average thickening of intima in aorta, Total Aorta” value (WHHL rabbits [2]; oral, eight months, pravastatin 50, pioglitazone 20, Compound A 10 mg/kg, mean ± standard error, control 154 ± 33) was 126 ± 22 μm and the “Average thickening of intima in aorta, Aortic Arch” value (WHHL rabbits [2]; oral, eight months, pravastatin 50, pioglitazone 20, Compound A 10 mg/kg, mean ± standard error, control 237 ± 63) was 194 ± 42 μm. The “Stained Area, % of Control” value (Male Fl b hamsters; 3 mg/kg) was 106%, the “Stained Area ORO” value (Male Fl b hamsters; aortic arch, 3 mg/kg in drinking water, 4 weeks, control 1.82 ± 0.44) was 1.93 ± 0.33% and the “regression of aortic lesions” value (Male Fl b hamsters; pravastatin 3 mg/kg, fluvastatin 1.5 mg/kg, troglitazone 30 mg/kg alone, combinations) was “no regression of aortic lesions”. For the same compound, the “prevention of coronary arteriosclerosis and xanthoma, efficacy” value [3] was “may be prevented in rabbits receiving pravastatin, but its efficacy remains insufficient”, the “Frequency of massive xanthoma” value (WHHL rabbits [4]; control 57, *p < 0.05, **p < 0.01 vs control) was 42 and the “incidence of xanthoma” value (WHHL rabbits [4]; forelegs and hindlegs) was “slightly less frequent incidence of xanthoma”. The “Distribution of severity of lesion: (-) no lesions” value (WHHL rabbits [4]; number of legs, control 0) was 3, the “Distribution of severity of lesion: (+++) severe lesion” value (WHHL rabbits [4]; number of legs, control 6) was 2 and the “Distribution of severity of lesion: (++) moderate lesion” value (WHHL rabbits [4]; number of legs, control 10) was 8. For the same compound, the “Distribution of severity of lesion: (+) slight lesion” value (WHHL rabbits [4]; number of legs, control 12) was 11, the “Incidence of xanthoma, Forelegs” value (WHHL rabbits [4]; [8]) was 100% and the “Incidence of xanthoma, Hindlegs” value (WHHL rabbits [4]; [8]) was 75%. The “Incidence of xanthoma, Total” value (WHHL rabbits [4]; oral, eight months, control 100 (28/28), *p < 0.05, **p < 0.01 vs control) was 88%, the “total cholesterol level, % of level before starting the study” value (“total cholesterol level, %” below) ([5]; week 4) was 87% and the “total cholesterol level, %” value ([5]; week 8) was 87%. The “total cholesterol level, %” value ([5]; week 12) was 81%, the “total cholesterol level, %” value ([5]; week 16) was 81% and the “total cholesterol level, %” value ([5]; week 20) was 75%. The “total cholesterol level, %” value ([5]; week 24) was 68%, the “total cholesterol level, %” value ([5]; week 28) was 68% and the “total cholesterol level, %” value ([5]; week 32) was 60%. The “Cholesterol level of Thoracic and Abdominal Aorta, Esterified” value (WHHL rabbits [6]; mean ± standard error, control 5.3 ± 1.7) was 4.7 ± 0.7 mg/g tissue, the “Cholesterol Content of Aortic Arch, Esterified” value (WHHL rabbits [6]; mean ± standard error, control 6.5 ± 1.4, *p < 0.05) was 6.4 ± 1.1 mg/g tissue and the “Cholesterol level of Thoracic and Abdominal Aorta, Free” value (WHHL rabbits [6]; mean ± standard error, control 14.8 ± 2.3, *p < 0.05 vs control) was 12.5 ± 1.3 mg/g tissue. For the same compound, the “Cholesterol level of Thoracic and Abdominal Aorta, Total” value (WHHL rabbits [6]; mean ± standard error, control 20.1 ± 2.3, *p < 0.05, **p < 0.02 vs control) was 17.2 ± 1.6 mg/g tissue, the “Cholesterol Content of Aortic Arch, Free” value (WHHL rabbits [6]; mean ± standard error, control 20.6 ± 2.9) was 18.6 ± 4.4 mg/g tissue and the “Cholesterol Content of Aortic Arch, Total” value (WHHL rabbits [6]; mean ± standard error, control 27.1 ± 3.3) was 24.9 ± 5.2 mg/g tissue. The “Cholesterol Content of Aortic Arch, Esterified, percentage against the control” value (WHHL rabbits [6]; number in parentheses) was 98%, the “Cholesterol Content of Aortic Arch, Free, percentage against the control” value (WHHL rabbits [6]; number in parentheses) was 90% and the “Cholesterol Content of Aortic Arch, Total, percentage against the control” value (WHHL rabbits [6]; number in parentheses) was 92%. For the same compound, the “Cholesterol level of Thoracic and Abdominal Aorta, Esterified, percentage against the control” value (WHHL rabbits [6]; number in parentheses) was 89%, the “Cholesterol level of Thoracic and Abdominal Aorta, Free, percentage against the control” value (WHHL rabbits [6]; number in parentheses) was 84% and the “Cholesterol level of Thoracic and Abdominal Aorta, Total, percentage against the control” value (WHHL rabbits [6]; number in parentheses) was 86%. For the same compound, the “Rate of lesion area, against the control group” value ([7]; 3 mg/kg) was 103, the “Rate of lesion area, against the control group” value ([7]; 5 mg/kg) was 79 and the “Rate of lesion area” value ([7]; 3 mg/kg oral) was 30 ± 12%. For the same compound, the “Rate of lesion area” value ([7]; 5 mg/kg oral) was 23 ± 9%.
